How the values were obtained:
[1] = tested on: Type 2 diabetic C57BL/6 db/db mice; experiment: Low blood glucose sustainability in non-fasting type 2 diabetic mice; format: in vivo; conditions: 25 nmol/kg intraperitoneal
Method: The following experiment was performed to evaluate low blood glucose sustainability of C40 site specific PEG bound exendin-4 composition according to the present invention in Type 2 diabetic mice.
Type 2 diabetic C57BL/6 db/db mice (male, 4-5 weeks old, Central Lab. Animal Inc.) were used, and animals were exposed to light at 12 hours cycle and were grown after having stabilized two week by allowing free intake of foods and water. The experimental animals were managed following the guideline of National Institute of Health (NIH) and authorized by Institutional Animal Care and Use Committee of Sungkyunkwan University, and the experiment was performed humanely.
C40-PEG5K-Ex4 (linear), C40-PEG20K-Ex4 (linear), C40-PEG20K-Ex4 (branch), C40-PEG23K-Ex4 (trimer) and C40-PEG50K-Ex4 (trimer) prepared from the Example 1 to 5 and Lys^27-PEG20K-Ex4 prepared in Comparative example 1b were intraperitoneally injected with 25 nmol/kg dose to male db/db mice (6-7 weeks old), blood was collected from tail vein of mice following the float time: 0, 0.5, 1, 2, 3, 4, 6, 8, 12, 24, 36, 48, 60, 72, 96 hours and blood glucose concentration was measured with ACCU-CHEK Sensor (Roche Diagnostics Corp., USA). Afterwards, the low blood glucose sustaining time (blood glucose level<8.35 mmol/l (150 mg/dL)) was additionally measured and shown in Table 4 and FIG. 12. In the present experiment, exendin-4 was used as the control group.

GLP-1 receptor (GLP-1R) = target: T1, GLP-1 receptor (GLP-1R) (Rattus norvegicus, UniProt P32301); experiment: RIN-m5F cell receptor binding affinity (I-125 exendin-4 displacement)
T1 construct: Islet cells (RIN-m5F, ATCC, Manassas, Va.) expressing vast quantity of GLP-1 receptor (GLP-1R) were inoculated in 12-wells plates; host or cells: RIN-m5F
T1 sequence (P32301 22-463): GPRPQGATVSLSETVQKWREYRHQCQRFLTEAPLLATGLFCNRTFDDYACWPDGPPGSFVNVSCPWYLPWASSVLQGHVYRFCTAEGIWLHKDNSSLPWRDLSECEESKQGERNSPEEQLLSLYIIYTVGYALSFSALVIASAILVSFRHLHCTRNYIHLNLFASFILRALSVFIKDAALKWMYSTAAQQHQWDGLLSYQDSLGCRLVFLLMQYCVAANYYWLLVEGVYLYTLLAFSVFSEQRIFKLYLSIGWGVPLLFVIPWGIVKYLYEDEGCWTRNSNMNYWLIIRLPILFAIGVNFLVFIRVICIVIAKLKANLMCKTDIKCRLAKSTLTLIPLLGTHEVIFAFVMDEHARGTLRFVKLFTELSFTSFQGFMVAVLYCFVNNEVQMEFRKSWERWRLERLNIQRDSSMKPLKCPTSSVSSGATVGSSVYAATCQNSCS
Method: Thorough washing was done with PBS including […] bovine serum albumin after two hours.

| Substance | Blood glucose level (average) ([1]; time 0 h) [mmol/L] | Blood glucose level (average) ([1]; time 0.5 h) [mmol/L] | Blood glucose level (average) ([1]; time 1 h) [mmol/L] | Blood glucose level (average) ([1]; time 2 h) [mmol/L] | Blood glucose level (average) ([1]; time 3 h) [mmol/L] | Blood glucose level (average) ([1]; time 4 h) [mmol/L] | Blood glucose level (average) ([1]; time 6 h) [mmol/L] | Blood glucose level (average) ([1]; time 8 h) [mmol/L] | Blood glucose level (average) ([1]; time 12 h) [mmol/L] | Blood glucose level (average) ([1]; time 24 h) [mmol/L] | IC50 (GLP-1 receptor (GLP-1R); RIN-m5F cells, competition with 30 pM I-125 exendin-4 (9-39), 2 hours) [nM] | activity (GLP-1 receptor affinity) better than Comparative example 1a (Lys^12-PEG5K-Ex4) (GLP-1 receptor (GLP-1R); ratio of IC50 values) [times] | activity (GLP-1 receptor affinity) better than Comparative example 1b (Lys^27-PEG5K-Ex4) (GLP-1 receptor (GLP-1R); ratio of IC50 values) | activity (GLP-1 receptor affinity) better than Comparative example 2 (Nter-PEG5K-Ex4) (GLP-1 receptor (GLP-1R); ratio of IC50 values) [times] | low blood glucose sustaining time (time required for blood glucose level increasing back to 8.35 mmol/l) ([1]; blood glucose level<8.35 mmol/l (150 mg/dL)) [h] | Blood glucose level (average) ([1]; time 36 h) [mmol/L] | Blood glucose level (average) ([1]; time 48 h) [mmol/L] | Blood glucose level (average) ([1]; time 60 h) [mmol/L] | Blood glucose level (average) ([1]; time 72 h) [mmol/L] |
| --- | --- | --- | --- | --- | --- | --- | --- | --- | --- | --- | --- | --- | --- | --- | --- | --- | --- | --- | --- |
| Example 1: exendin-4-Cys (cysteine at C-terminal #40 site, SEQ ID NO: 1) bound with linear 5 kDa mPEG-MAL | 23.38 | 7.62 | 7.36 | 5.09 | 4.46 | 4.93 | 5.73 | 9.04 | 16.2 | 21.1 | 1.04 | 6 | twice | 120 |  |  |  |  |  |
| Example 2: exendin-4-Cys (SEQ ID NO: 1) bound at C40 with linear 20 kDa mPEG-MAL | 24.28 | 7.96 | 6.13 | 5.29 | 4.18 | 4.34 | 4.9 | 4.57 | 5.86 | 8.54 |  |  |  |  | 23.2 | 11.47 | 15.34 | 20.45 | 23.02 |
| Example 3: exendin-4-Cys (SEQ ID NO: 1) bound at C40 with branch type 20 kDa mPEG-MAL | 24.44 | 7.86 | 6.89 | 5.04 | 4.15 | 4.66 | 4.67 | 5.11 | 7.89 | 15.09 |  |  |  |  |  | 20.14 | 24.21 | 23.76 |  |
| 1b (Lys^27-PEG20K-Ex4): exendin-4 (SEQ ID NO: 2) PEGylated at Lys27 amine with 20 kDa mPEG-SPA [reference compound] | 24.13 | 7.97 | 6.56 | 5.24 | 4.22 | 4.29 | 4.85 | 5.13 | 5.40 | 12.98 |  |  |  |  |  | 17.34 | 20.45 | 23.02 |  |

From US10406230B2, “Exendin-4 analogue pegylated with polyethylene glycol or derivative thereof, preparation method thereof, and pharmaceutical composition for preventing or treating diabetes, containing same as active ingredient” (priority 2011, dated 2019)
